ChEMBL document CHEMBL4145553, “Design, synthesis, and biological evaluation of novel amide and hydrazide based thioether analogs targeting Histone deacteylase (HDAC) enzymes” (Eur J Med Chem, 2018)

Assays:
Format in all cases: functional
[1] = system: ACHN; assay: Growth inhibition of human ACHN cells incubated for 48 hrs by sulforhodamine B assay
[2] = system: SNB-19; assay: Growth inhibition of human SNB19 cells assessed as cell growth at 10^-4 M incubated for 48 hrs by sulforhodamine B assay relative to control; details: SNB-19, 48 h, read-out: Activity
[3] = system: RPMI-8226; assay: Growth inhibition of human RPMI8226 cells assessed as cell growth at 10^-6 M incubated for 48 hrs by sulforhodamine B assay relative to control; details: RPMI-8226, 48 h, read-out: Activity
[4] = system: EKVX; assay: Growth inhibition of human EKVX cells assessed as cell growth at 10^-4 M incubated for 48 hrs by sulforhodamine B assay relative to control; details: read-out: Activity
[5] = system: MDA-MB-231; assay: Growth inhibition of human MDA-MB-231 cells assessed as cell growth at 10^-6 M incubated for 48 hrs by sulforhodamine B assay relative to control; details: MDA-MB-231, 48 h, read-out: Activity
[6] = system: KM12; assay: Growth inhibition of human KM12 cells assessed as cell growth at 10^-4 M incubated for 48 hrs by sulforhodamine B assay relative to control; details: KM12, 48 h, read-out: Activity
[7] = system: T47D; assay: Growth inhibition of human T47D cells incubated for 48 hrs by sulforhodamine B assay
[8] = system: M14; assay: Growth inhibition of human M14 cells incubated for 48 hrs by sulforhodamine B assay; details: M14, 48 h
[9] = system: K562; assay: Growth inhibition of human K562 cells incubated for 48 hrs by sulforhodamine B assay; details: K562, 48 h
[10] = system: A498; assay: Growth inhibition of human A498 cells assessed as cell growth at 10^-5 M incubated for 48 hrs by sulforhodamine B assay relative to control; details: A498, 48 h, read-out: Activity
[11] = system: CAKI-1; assay: Growth inhibition of human Caki1 cells assessed as cell growth at 10^-8 M incubated for 48 hrs by sulforhodamine B assay relative to control; details: CAKI-1, 48 h, read-out: Activity
[12] = system: SK-MEL-5; assay: Growth inhibition of human SK-MEL-5 cells assessed as cell growth at 10^-4 M incubated for 48 hrs by sulforhodamine B assay relative to control; details: SK-MEL-5, 48 h, read-out: Activity
[13] = system: MOLT-4; assay: Growth inhibition of human MOLT4 cells assessed as cell growth at 10^-8 M incubated for 48 hrs by sulforhodamine B assay relative to control; details: MOLT-4, 48 h, read-out: Activity
[14] = system: RPMI-8226; assay: Growth inhibition of human RPMI8226 cells incubated for 48 hrs by sulforhodamine B assay; details: RPMI-8226, 48 h
[15] = system: HL-60(TB); assay: Growth inhibition of human HL-60(TB) cells assessed as cell growth at 10^-7 M incubated for 48 hrs by sulforhodamine B assay relative to control; details: HL-60, 48 h, read-out: Activity
[16] = system: U-251; assay: Growth inhibition of human U251 cells assessed as cell growth at 10^-5 M incubated for 48 hrs by sulforhodamine B assay relative to control; details: U-251, 48 h, read-out: Activity
[17] = system: HCC 2998; assay: Growth inhibition of human HCC2998 cells assessed as cell growth at 10^-7 M incubated for 48 hrs by sulforhodamine B assay relative to control; details: HCC 2998, 48 h, read-out: Activity
[18] = system: MDA-MB-435; assay: Cell cycle arrest in human MDA-MB-435 cells assessed as accumulation at G1-phase by propidium iodide staining based flow cytometry (reference value: 69.15%)
[19] = system: UACC-257; assay: Growth inhibition of human UACC257 cells assessed as cell growth at 10^-7 M incubated for 48 hrs by sulforhodamine B assay relative to control; details: UACC-257, 48 h, read-out: Activity
[20] = system: HL-60; assay: Cell cycle arrest in human HL60 cells assessed as accumulation at S-phase by propidium iodide staining based flow cytometry (reference value: 24.9%)
[21] = system: LOX IMVI; assay: Growth inhibition of human LOXIMVI cells incubated for 48 hrs by sulforhodamine B assay
[22] = system: U-251; assay: Growth inhibition of human U251 cells assessed as cell growth at 10^-6 M incubated for 48 hrs by sulforhodamine B assay relative to control; details: U-251, 48 h, read-out: Activity
[23] = system: SW-620; assay: Growth inhibition of human SW620 cells incubated for 48 hrs by sulforhodamine B assay; details: SW-620, 48 h
[24] = system: SK-OV-3; assay: Growth inhibition of human SKOV3 cells incubated for 48 hrs by sulforhodamine B assay; details: SK-OV-3, 48 h
[25] = system: MDA-MB-435; assay: Antiproliferative activity against human MDA-MB-435 cells after 24 hrs by MTT assay
[26] = system: SF-268; assay: Growth inhibition of human SF268 cells assessed as cell growth at 10^-4 M incubated for 48 hrs by sulforhodamine B assay relative to control; details: SF-268, 48 h, read-out: Activity
[27] = system: DU-145; assay: Growth inhibition of human DU145 cells assessed as cell growth at 10^-8 M incubated for 48 hrs by sulforhodamine B assay relative to control; details: DU-145, 48 h, read-out: Activity
[28] = system: ACHN; assay: Growth inhibition of human ACHN cells assessed as cell growth at 10^-4 M incubated for 48 hrs by sulforhodamine B assay relative to control; details: read-out: Activity
[29] = system: A549; assay: Growth inhibition of human A549/ATCC cells assessed as cell growth at 10^-5 M incubated for 48 hrs by sulforhodamine B assay relative to control; details: A549, 48 h, read-out: Activity
[30] = read-out: LC50 (the source's name)
[31] = read-out: pLC50 (the source's name) (converted)

CCS/C(Nc1ccccc1)=C(\C#N)C(=O)N/N=C\c1ccc(Cl)cc1Cl
GI50 ([1]; read-out: GI50): 7.08 µM
CC50 [1, 30]: > 100 µM
TGI ([1]; read-out: TGI): > 100 µM
GI50 ([1]; read-out: pGI50 (converted)): 7.08 µM
CC50 [1, 31]: > 100 µM
TGI ([1]; read-out: pTGI): > 100 µM
growth at 100 µM [2]: 21%
growth at 1 µM [3]: 92%
growth at 100 µM [4]: 29%
growth at 1 µM [5]: 89%
growth at 100 µM [6]: 22%
GI50 ([7]; read-out: GI50): 4.03 µM
CC50 [7, 30]: > 100 µM
TGI ([7]; read-out: TGI): > 100 µM
GI50 ([7]; read-out: pGI50 (converted)): 4.07 µM
CC50 [7, 31]: > 100 µM
TGI ([7]; read-out: pTGI): > 100 µM
GI50 ([8]; read-out: GI50): 2.01 µM
CC50 [8, 30]: > 100 µM
TGI ([8]; read-out: TGI): 9.61 µM
GI50 ([8]; read-out: pGI50 (converted)): 2 µM
CC50 [8, 31]: > 100 µM
TGI ([8]; read-out: pTGI (converted)): 9.55 µM
GI50 ([9]; read-out: GI50): 0.855 µM
CC50 [9, 30]: > 100 µM
TGI ([9]; read-out: TGI): > 100 µM
GI50 ([9]; read-out: pGI50 (converted)): 0.851 µM
CC50 [9, 31]: > 100 µM
TGI ([9]; read-out: pTGI): > 100 µM
growth at 10 µM [10]: 3%
growth at 0.01 µM [11]: 94%
growth at 100 µM [12]: -14%
growth at 0.01 µM [13]: 95%
GI50 ([14]; read-out: GI50): 3.68 µM
CC50 [14, 30]: > 100 µM
TGI ([14]; read-out: TGI): > 100 µM
GI50 ([14]; read-out: pGI50 (converted)): 3.72 µM
CC50 [14, 31]: > 100 µM
TGI ([14]; read-out: pTGI): > 100 µM
growth at 0.1 µM [15]: 91%
growth at 10 µM [16]: 20%
growth at 0.1 µM [17]: 100%
Activity [18]: 61.56%
growth at 0.1 µM [19]: 94%
Activity [20]: 13.18%
GI50 ([21]; read-out: GI50): 5.88 µM
CC50 [21, 30]: > 100 µM
TGI ([21]; read-out: TGI): > 100 µM
GI50 ([21]; read-out: pGI50 (converted)): 5.89 µM
CC50 [21, 31]: > 100 µM
TGI ([21]; read-out: pTGI): > 100 µM
growth at 1 µM [22]: 94%
GI50 ([23]; read-out: GI50): 4.65 µM
CC50 [23, 30]: > 100 µM
TGI ([23]; read-out: TGI): > 100 µM
GI50 ([23]; read-out: pGI50 (converted)): 4.68 µM
CC50 [23, 31]: > 100 µM
TGI ([23]; read-out: pTGI): > 100 µM
GI50 ([24]; read-out: GI50): 3.72 µM
CC50 [24, 30]: > 100 µM
TGI ([24]; read-out: TGI): > 100 µM
GI50 ([24]; read-out: pGI50 (converted)): 3.72 µM
CC50 [24, 31]: > 100 µM
TGI ([24]; read-out: pTGI (converted)): > 100 µM
Activity [25]: Dose-dependent effect
GI50 ([25]; Homo sapiens, MDA-MB-435, 24 h): 0.42 µM
growth at 100 µM [26]: 27%
growth at 0.01 µM [27]: 105%
growth at 100 µM [28]: 29%
growth at 10 µM [29]: 29%
